Measurements from US20060141024A1, “Synergistic combination kit of alpha,beta-arteether, sulfadoxin and pyrimethamine for treatment of severe/multi-drug resistant cerebral malaria” (COUNCIL OF SIENTIFIC AND INDUSTRIAL RESEARCH, priority 2004, published 2006).
Read-outs that look alike come from different tables or passages of the source.

What was measured:
[1] = im, swiss mice; cited from earlier work
cerebral malaria = details: comatose cerebral malaria cases; quinine intravenous; cited from earlier work
uncomplicated malaria = details: cited from earlier work
P. falciparum [2] = details: cited from earlier work
[3] = test system: multi drug resistant P. yoelii nigeriensis; experiment: Arteether (im, x3) and Fansidar (oral, x1) in combination against multi drug resistant P. yoelii nigeriensis infection in Swiss mice; type: in vivo, Plasmodium yoelii nigeriensis
Method: Experimental: Swiss mice (20±2 g) were inoculated intra peritoneal with 1×10^6 Plasmodium yoelii nigeriensis (malaria parasite) infected mouse red blood cells. Fansidar was suspended in tween 80 and then in triple distilled water and two different doses, i.e. 1.25-2.5 mg/kg were administered in previously infected Swiss mice. Fansidar was administered by oral route for only 1 day. α/β Arteether was dissolved in neutralized and sterilized ground nut oil and doses i.e. 1.25, 1.78 and 2.5mg/kg were administered by intramuscular route for 3 days. In other groups of infected mice these drugs were given individually for comparison. 2.5, 1.78 and 1.25 mg/kg and α/β arteether were given in combinations with 2.5 and 1.25 mg/kg Fansidar. One group of mice was kept as infected control. After treatment parasitaemia was recorded from tail blood smears of individual mouse. (Table-1)

[4] = test system: multi drug resistant P. yoelii nigeriensis; experiment: Shorter regimen of α/β arteether (im) and Fansidar (oral) against multi drug resistant P. yoelii nigeriensis in Swiss mice; type: in vivo, Plasmodium yoelii nigeriensis
Method: Experimental: Swiss mice (20±2 g) were inoculated intra peritoneal with 1×10^6 Plasmodium yoelii nigeriensis (malaria parasite) infected mouse red blood cells. Faosidar was suspended in tween 80 and then in triple distilled water and 2.5 mg/kg dose was administered in previously infected Swiss mice. Fansidar was administered by oral route for only 1 day i.e. on day 0 or day 1. α/β Arteether was dissolved in neutralized and sterilized ground nut oil and doses i.e. 7.5 mg/kg×1, ×2, 5 mg/kg×1, ×2 by intramuscular route were given in combination with 2.5 mg/kg ×1 dose of Fansidar. These doses of both the drugs were given individually for comparison. One group of mice was kept as infected control. After treatment parasitaemia was recorded from tail blood smears of individual mouse.

[5] = test system: multi drug resistant P. yoelii nigeriensis; experiment: Variable regimen of α/β arteether (oral, in oil) and Fansidar (oral) against multi drug resistant P. yoelii nigeriensis in Swiss mice; type: in vivo, Plasmodium yoelii nigeriensis
Method: Experimental: Swiss mice (20±2 g) were inoculated intra peritoneal with 1×10^6 Plasmodium yoelii nigeriensis (malaria parasite) infected mouse red blood cells. Fansidar was suspended in tween 80 and then in triple distilled water and different doses i.e., 5, 2.5 and 1.25 mg/kg were admimstered in previously infected Swiss mice. Fansidar was administered by oral route for only 1 day i.e. on day 0. α/β Arteether was dissolved in neutralized and sterilized ground nut oil and doses i.e. 25 mg/kg×1 ×4, 12.5mg/kg×4 were given orally in combination with 5.0, 2.5 and 1.25 mg/kg ×1 dose of Fansidar. These doses of both the drugs were given individually for comparison. One group of mice was kept as infected control. After treatment parasitaemia was recorded from tail blood smears of individual mouse and their mean parasitaemia was calculated.

[6] = test system: multi drug resistant P. yoelii nigeriensis; experiment: α/β arteether (oral, aqueous) and Fansidar (oral) against multi drug resistant P. yoelii nigeriensis in Swiss mice; type: in vivo, Plasmodium yoelii nigeriensis
Method: Experimental: Swiss mice (20±2 g) were inoculated intra peritoneal with 1×10^6 Plasmodium yoelii nigeriensis (malaria parasite) infected mouse red blood cells. Fansidar was suspended in tween 80 and then in triple distilled water and different doses i.e. 2.5 and 1.25 mg/kg were administered in previously infected Swiss mice. Fansidar was administered by oral route for only 1 day i.e. on day 0 α/β Arteether was dissolved in tween 80 and triple distilled water and doses i.e. 24 and 12 and 6 mg/kg×4 were given orally in combination with 2.5 and 1.25 mg/kg ×1 dose of Fansidar. These doses of both the drugs were also given individually for comparison. One group of mice was kept as infected control. After treatment parasitaemia was recorded from tail blood smears of individual mouse and their mean parasitaemia was calculated.

P. yoelii nigeriensis = experiment: Curative dose against P. yoelii nigeriensis in swiss mice; type: in vivo, Plasmodium yoelii nigeriensis; details: for three days (x3), intramuscular
Method: The curative dose of α,β arteether against P. yoelii nigeriensis in gwiss mice (a murine model equivalent to P. falciparum in human) is 7.5 mg/kg for three days. Sulfadoxin/pyrimethtnine combination is usually given for P. falciparum infection, to adult humans as a single dose of 1500 mg sulfadoxin and 75 mg pyremethamine (usually in 3 tablets of 500 mg sulfadoxin and 25 mg pyremethamine) (practical chemotherapy of malaria, WHO, Geneva 1990). For children if they are below 40 kg, only 2 tablets are recommended. […] Although resistance to Fansidar is documented in expatriates in East Africa (Schapira et al. 1986), the drug is reported to be generally effective in the indigenous population (Spencer et al. 1984) and it is treated as second line of drug and is the only affordable drug for chloroquine resistant cases in developing countries. In combination the proposed doses of α,β arteether plus sulfadoxin and pyrimethamine for humans would be 150 mg×3 (im injections) or 450-750 mg×5 (oral dose) of α,β arteether with three tablets of 500 mg sulfadoxin and 25 mg of pyrimethamine for P. falciparum. The proposed combination therapy will certainly reduce the incidence of recrudescence and new infection in high transmission areas.

P. falciparum [7] = details: arteether 150 mg i.m. daily for three days, uncomplicated P. falciparum malaria, cited from earlier work
P. falciparum [8] = details: 211 patients of complicated P. falciparum malaria; cited from earlier work
[9] = arteether 1.25 mg/kg x3 im alone
[10] = arteether 1.78 mg/kg x3 im alone
[11] = arteether 2.5 mg/kg x3 im alone
[12] = arteether 5.0 mg/kg x1 (day 0) im alone
[13] = arteether 5.0 mg/kg x2 (days 0, 1) im alone
[14] = arteether 7.5 mg/kg x1 (day 0) im alone
[15] = arteether 7.5 mg/kg x2 (days 0, 1) im alone
[16] = arteether 12.5 mg/kg x4 oral (in oil) alone
[17] = arteether 25.0 mg/kg x4 oral (in oil) alone
[18] = arteether 6 mg/kg x4 oral (aqueous) alone
[19] = arteether 12 mg/kg x4 oral (aqueous) alone
[20] = arteether 24 mg/kg x4 oral (aqueous) alone

CO[C@H]1O[C@@H]2O[C@@]3(C)CC[C@H]4[C@H](C)CC[C@@H]([C@H]1C)[C@@]24OO3 [artemether]
LD50 [1]: 263 mg/kg

C[C@@H]1CC[C@H]2[C@@H](C)C(=O)O[C@@H]3O[C@@]4(C)CC[C@@H]1[C@]32OO4 [artemisiain, artemisinin]
reduction in parasitaemia (time) (cerebral malaria): 16 h | recrudescence (uncomplicated malaria; 20 mg/kg x3 days): 38% | recrudescence (uncomplicated malaria; 20 mg/kg x5 days): 15%

C[C@H]1[C@H](OC(=O)CCC(=O)O)O[C@@H]2O[C@@]3(C)CC[C@H]4[C@H](C)CC[C@@H]1[C@@]24OO3 [artesunate]
LD50 [1]: 475 mg/kg

C=C[C@H]1C[N@@]2CC[C@H]1C[C@H]2[C@H](O)c1ccnc2ccc(OC)cc12 [quinine]
reduction in parasitaemia (time) (cerebral malaria): 34.5 h | recrudescence (uncomplicated malaria; 10 mg/kg x7 days): 16%

COc1ncnc(NS(=O)(=O)c2ccc(N)cc2)c1OC [sulfadoxin]
concentration giving 100% inhibition in vitro (P. falciparum [2]): < 5.0 mmol/lit

CCO[C@H]1O[C@@H]2O[C@@]3(C)CC[C@H]4[C@H](C)CC[C@@H]([C@H]1C)[C@@]24OO3 [α/β arteether, α,β-Arteether]
Cure rate (%) [3, 9]: 0.0% | Day 4 mice negative/total [3, 9]: 3/6 | Day 7 mice negative/total [3, 9]: 0/6 | Cure rate (%) [3, 10]: 16.6% | Day 4 mice negative/total [3, 10]: 6/6 | Day 7 mice negative/total [3, 10]: 5/6 | Day 14 mice negative/total [3, 10]: 2/2 | Day 18 mice negative/total [3, 10]: 1/2 | Day 21 mice negative/total [3, 10]: 1/2 | Day 28 mice negative/total [3, 10]: 1/1 | Cure rate (%) [3, 11]: 66.6% | Day 4 mice negative/total [3, 11]: 6/6 | Day 7 mice negative/total [3, 11]: 6/6 | Day 14 mice negative/total [3, 11]: 4/4 | Day 18 mice negative/total [3, 11]: 4/4 | Day 21 mice negative/total [3, 11]: 4/4 | Day 28 mice negative/total [3, 11]: 4/4 | Cure rate (%) [4, 12]: 0.0% | Day 4 mice negative/total [4, 12]: 6/6 | Day 7 mice negative/total [4, 12]: 2/6 | Day 10 mice negative/total [4, 12]: 0/4 | Cure rate (%) [4, 13]: 83.3% | Day 4 mice negative/total [4, 13]: 6/6 | Day 7 mice negative/total [4, 13]: 6/6 | Day 10 mice negative/total [4, 13]: 6/6 | Day 14 mice negative/total [4, 13]: 6/6 | Day 21 mice negative/total [4, 13]: 5/5 | Day 28 mice negative/total [4, 13]: 5/5 | Cure rate (%) [4, 14]: 83.3% | Day 4 mice negative/total [4, 14]: 6/6 | Day 7 mice negative/total [4, 14]: 6/6 | Day 10 mice negative/total [4, 14]: 6/6 | Day 14 mice negative/total [4, 14]: 6/6 | Day 21 mice negative/total [4, 14]: 5/5 | Day 28 mice negative/total [4, 14]: 5/5 | Cure rate (%) [4, 15]: 100% | Day 4 mice negative/total [4, 15]: 6/6 | Day 7 mice negative/total [4, 15]: 6/6 | Day 10 mice negative/total [4, 15]: 6/6 | Day 14 mice negative/total [4, 15]: 6/6 | Day 21 mice negative/total [4, 15]: 6/6 | Day 28 mice negative/total [4, 15]: 6/6 | % Cure rate [5, 16]: 28.5% | Mice remained negative on day 4 [5, 16]: 5/7 | Mice remained negative on day 7 [5, 16]: 3/7 | Mice remained negative on day 14 [5, 16]: 2/2 | Mice remained negative on day 21 [5, 16]: 2/2 | Mice remained negative on day 28 [5, 16]: 2/2 | % Cure rate [5, 17]: 57.1% | Mice remained negative on day 4 [5, 17]: 7/7 | Mice remained negative on day 7 [5, 17]: 7/7 | Mice remained negative on day 14 [5, 17]: 4/4 | Mice remained negative on day 21 [5, 17]: 4/4 | Mice remained negative on day 28 [5, 17]: 4/4 | % Cure rate [6, 18]: 0.0% | Mice remained negative on day 4 [6, 18]: 5/7 | Mice remained negative on day 7 [6, 18]: 0/3 | % Cure rate [6, 19]: 0.0% | Mice remained negative on day 4 [6, 19]: 3/7 | Mice remained negative on day 7 [6, 19]: 0/5 | % Cure rate [6, 20]: 14.28% | Mice remained negative on day 4 [6, 20]: 7/7 | Mice remained negative on day 7 [6, 20]: 3/6 | Mice remained negative on day 14 [6, 20]: 1/3 | Mice remained negative on day 21 [6, 20]: 1/2 | Mice remained negative on day 28 [6, 20]: 1/1 | curative dose with oral formulation (calculated) ([6]; x4, oral, aqueous (tween 80/water)): 72 mg/kg | curative dose (P. yoelii nigeriensis): 7.5 mg/kg | LD50 [1]: 1250 mg/kg | cure rate (P. falciparum [7]; 267 patients): 97% | fever clearance time (P. falciparum [7]): 1 to 7 days | parasite clearance time (P. falciparum [7]): 1 to 3 days | fever clearance time (P. falciparum [8]): 24 to 168 h | overall cure rate (P. falciparum [8]): 93%
